The values that follow come from US12441733B2, “Substituted 2,4-dioxotetrahydropyrimidines as intermediates in the synthesis of bruton's tyrosine kinase inhibitors” (Novartis AG, priority 2018, dated 2025).

Holding throughout (format): cell-based
Experiment [1] addresses T1, BTK-GFP (Homo sapiens, UniProt Q06187+Q96SW2).
T1 construct: expressed in transfected cells; host or cells: HEK293A (Invitrogen R70507), lentiviral transduction with pLenti6-BTK-GFP-Ires-RFP, blasticidin selection
The experiment can be described thus: BTK-GFP protein abundance flow cytometry assay in HEK293A cells. The settings on record: HEK293A BTK-GFP-iresRFP cells, 24 h; for DC50: GFP signal by flow cytometry, concentration at which 50% maximal degradation was observed; for BTK deg Amax: % protein remaining at the concentration at which maximum degradation is seen. How it is done: (§1) Compounds of the invention were tested in the following cellular assays. The terms in Table 2 are defined as follows: DC50 refers to the concentration at which 50% maximal degradation was observed; deg Amax is the extent of degradation and the value refers to the % protein remaining at the concentration at which maximum degradation is seen; ProI GI50 refers to the proliferation data and defines the concentration at which 50% growth inhibition was observed compared to the vehicle treated control at the end of the incubation time. TMD8 cells are BTK dependent and OCI-LY3 cells are BTK independent.
BTK-GFP and IKZF3-GFP protein abundance flow cytometry assay in HEK293A cells:
Degradation of BTK or IKZF3 was measured in HEK293A cells (Invitrogen R70507) expressing either BTK-GFP and RFP or IKZF3-GFP and RFP from a stably integrated bicistronic BTK-GFP-iresRFP or IKZF3-GFP-iresRFP construct, respectively. Reduction of the GFP signal measured by flow cytometry served as readout for BTK or IKZF3 degradation after degrader treatment.
i) Cloning of the pLenti6-BTK-GFP-1Res-RFP and IKZF3-GFP-Ires-RFP Sensor Vectors
The bicistronic BTK-GFP-iresRFP construct is based on a pLenti6-DEST vector backbone where GFP was introduced into the unique Xho1 site downstream of the destination cassette (DEST) and RFP was cloned behind an internal ribosomal entry site (Ires).
In detail, the sensor construct was engineered by replacing NanoLuciferase (NLuc) by GFP and FireFly luciferase (FF) by RFP from pLenti6-DEST-NLuc-Ires-FF.
The pLenti6-DEST-NLuc-Ires-FF sensor construct was cloned by replacing eGFP from pLenti6-DEST-ires-eGFP with a synthesized stuffer element (encoding Ires-FF with FF flanked by two Nhe1 restriction sites) using blunt end cloning replacing Ires-eGFP between the two PmII. To enable C-terminal tagging with NanoLuciferase (NLuc), NLuc was amplified from pNL1.1 (Promega #N1001) using linker primers with Xho1 sites for ligating into linearized pLenti6-DEST-Ires-FF using Xho1 digest resulting in the construct pLenti6-DEST-NLuc-Ires-FF.
The pLenti6-DEST-NLuc-Ires-FF served as base vector for cloning pLenti6-DEST-GFP-Ires-RFP using Gibson assembly to replace FF with RFP and NLuc with GFP. In a first round FF was replaced by RFP by amplifying RFP from a template using the following Gibson assembly linker primers (Gibson-Nhe1 RFPfw, […]gctagc[…] (SEQ ID NO: 1); Gibson-Nhe1 RFP-Stoprev, […]ctagc[…] (SEQ ID NO: 2)) to clone into pLenti6-DEST-NLuc-Ires-FF digested with Nhe1 and gel-purified to remove the FF fragment. The resulting pLenti6-DEST-NLuc-Ires-RFP vector served as the template to replace NLuc with GFP by amplifying GFP from a template using following Gibson assembly linker primers (Gibson-Xho1 GFPfw, […]c[…] (SEQ ID NO: 3); Gibson-Xho1 GFP-Stoprev, […] (SEQ ID NO: 4)) to clone into pLenti6-DEST-NLuc-Ires-RFP digested with Xho1 and gel-purified to remove the NLuc fragment. All Gibson assembly reactions were performed with Gibson assembly Master Mix (New England Biolabs NEB E261 IL) according to manufacturer's manual, resulting in the destination vector pLenti6-DEST-GFP-Ires-RFP to allow Gateway cloning. To enable gateway cloning and C-terminal GFP tagging of BTK, the BTK open reading frame (ORF) was first shuttled from a pcDNA-DEST40-BTK vector (Invitrogen library ID INV_20090504v1) into pDONR221 (Invitrogen 12536-017) vector using a gateway BP reaction according to the manufacturer's manual (Invitrogen 11789-013) resulting in the novel construct pENTR221-BTK. For C-terminal tagging the STOP codon was mutated to a leucine performing a mutagenesis reaction with the following primers (pENTR221-BTK Quikchange STOP-Leu fw, gtcatggatgaagaatccTTGaacccagctttcttgtac; pENTR221-BTK Quikchange STOP-Leu REVC, gtacaagaaagctgggttCAAggattcttcatccatgac) using the QuikChange Lightning mutagenesis kit (Agilent Technologies #210518) according to the manufacturer's manual, resulting in pENTR221-BTK (STOP-Leu). […]

For experiment [2], the system named is TMD8 cells. In words: Resazurin cell viability (proliferation) assay in TMD8 DLBCL cells. The settings on record: Homo sapiens, TMD8 cells (BTK dependent), 72 h, 50% growth inhibition vs vehicle, read-out: TMD8 Prol GI50. How it is done: as §1
(§2) Cell Viability Assay in DLBCL (Diffuse Large B-Cell Lymphoma) Cells:
(§3) The effect of the BTK compounds on cell proliferation was measured by a Resazurin (Sigma, #R7017) based cell viability assay. TMD8 (BTK compound sensitive) and OCI-LY3 (BTK compound insensitive) cells were incubated for 72 h at 37° C. and 5% CO2 with the corresponding compound, Resazurin is a non-toxic, cell-permeable substrate that is virtually non-fluorescent. Upon entering living cells, Resazurin (Sigma, #R7017) is reduced to highly fluorescent Resorufin. The metabolic activity was assessed by measuring the fluorescence signal (ex. 530 nm; em. 600 nm).
(§4) TMD8 and OCI-Ly3 cells were seeded at day 0 in triplicates at a cell density of 1×10^4 cells per 150 μl/well in a 96-well plate (Costar #3904). Additional plates were prepared, in order to assess the basal metabolic activity of both cell lines at the beginning of the experiment. For these reference plates, Resazurin (Sigma, #R7017) was added to a final concentration of 13 μg/ml 3 h post seeding and was incubated for 2 h at 37° C. and 5% CO2. Following incubation, the fluorescent signal intensity of the 96-well plates was measured on a Mithras LB940 multimode plate reader at 530/600 nm (Berthold Technologies, Germanyl).
(§5) In parallel, 3 h post-seeding, test-plates were treated with compound at various concentrations, or with vehicle (DMSO) alone for 3 days. The compound addition to the plates was performed by using a HP D300 digital dispenser (TECAN, Switzerland). The compounds were tested in triplicate, 8-point serial dilution (1:4), with a start concentration of 10 μM for OCI-LY3 and 1 μM for the TMD8 cells, respectively. To assess the relative proliferation of the cells, Resazurin was added to each well directly to the medium to a final concentration of 13 μg/ml. The plates were incubated for 2 h at 37° C. and 5% CO2 to result in a 72 h endpoint. Following incubation, the fluorescent signal intensity of the 96-well plates were measured on a Mithras LB940 multimode plate reader at 530/600 nm (Berthold Technologies, Germanyl). The formation of Resorufin dye directly correlates with the number of metabolically active cells. For each triplicate treatment the mean and standard deviation were calculated and analyzed via curve fitting software to determine the respective compound concentration resulting in 50% growth inhibition (GI50) values. For each compound GI50 values were typically determined from at least 2 entirely independent experiments.
TMD8 cells were acquired through a license agreement with Tokyo Medical and Dental University, Japan. Cells are cultivated in MEM Alpha (BioConcept, #1-23F01-1, lot. LB04262P) supplemented with 10% FCS (HyClone, GE #SH30066.03, lot AB3217603), 2 mM L-Glutamine (BioConcept, #5-10K50-H, lot. LA03467P), 1% Pen/Strep (BioConcept, #4-01F00-H, lot. LB04235P).
(Resazurin is reduced to fluorescent resorufin, in cell work by metabolically active cells.)

The subject of experiment [3] is OCI-LY3 cells. In words: Resazurin cell viability (proliferation) assay in OCI-LY3 DLBCL cells. The settings on record: Homo sapiens, OCI-LY3 cells (BTK independent), 72 h, 50% growth inhibition vs vehicle, read-out: OCI-LY3 Prol GI50. As for the experimental part: as §1, §2, §3, §4, §5
OCI-LY3 cells were acquired through a license agreement with University Health Network, Toronto, Canada. Cells are cultivated in RPM11640 media (Gibco, #61870-010, lot. 1894759), supplemented with 10% FCS (HyClone, GE #SH30066.03, lot AB217603), 2 mM L-Glutamine (BioConcept, #5-10K50-H, lot. LA03467P), 1 mM Sodium Pyruvate (BioConcept, #5-60F00-H, lot. LB10510P), 10 mM HEPES (Gibco, #15630-056, lot. 1854074), 1% Pen/Strep (BioConcept, #4-01F00-H, lot. LB04235P).

T1 sequence (Q06187 whole entry): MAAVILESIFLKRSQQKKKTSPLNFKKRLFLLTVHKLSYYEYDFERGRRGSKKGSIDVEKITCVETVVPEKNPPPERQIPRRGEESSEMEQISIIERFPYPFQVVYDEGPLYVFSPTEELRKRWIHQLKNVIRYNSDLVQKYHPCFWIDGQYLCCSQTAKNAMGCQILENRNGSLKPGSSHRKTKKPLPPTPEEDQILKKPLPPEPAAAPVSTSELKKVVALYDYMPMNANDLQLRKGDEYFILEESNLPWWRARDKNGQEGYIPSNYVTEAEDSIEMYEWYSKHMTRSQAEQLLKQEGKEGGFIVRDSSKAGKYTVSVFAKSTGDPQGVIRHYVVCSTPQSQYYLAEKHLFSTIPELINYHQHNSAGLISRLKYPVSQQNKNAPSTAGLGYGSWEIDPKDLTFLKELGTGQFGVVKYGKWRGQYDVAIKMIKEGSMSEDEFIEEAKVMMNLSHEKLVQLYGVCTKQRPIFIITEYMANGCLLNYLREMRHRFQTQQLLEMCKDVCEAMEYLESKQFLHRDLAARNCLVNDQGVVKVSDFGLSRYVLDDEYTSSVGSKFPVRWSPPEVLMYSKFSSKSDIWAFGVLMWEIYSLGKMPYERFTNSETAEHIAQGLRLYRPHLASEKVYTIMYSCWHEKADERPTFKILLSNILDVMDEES
T1 sequence (Q96SW2 whole entry): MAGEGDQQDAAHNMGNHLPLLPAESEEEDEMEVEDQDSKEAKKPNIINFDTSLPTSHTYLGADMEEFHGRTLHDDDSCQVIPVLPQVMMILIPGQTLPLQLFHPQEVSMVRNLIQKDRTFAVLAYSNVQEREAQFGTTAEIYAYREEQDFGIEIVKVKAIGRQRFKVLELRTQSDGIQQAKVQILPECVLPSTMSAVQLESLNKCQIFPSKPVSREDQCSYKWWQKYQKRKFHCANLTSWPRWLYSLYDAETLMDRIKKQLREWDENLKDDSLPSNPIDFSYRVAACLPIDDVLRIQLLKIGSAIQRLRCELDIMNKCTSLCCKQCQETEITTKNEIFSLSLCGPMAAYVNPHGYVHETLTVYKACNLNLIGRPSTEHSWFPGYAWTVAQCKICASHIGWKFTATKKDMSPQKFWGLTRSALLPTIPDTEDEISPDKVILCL
T1 sequence (Q16531 whole entry partner): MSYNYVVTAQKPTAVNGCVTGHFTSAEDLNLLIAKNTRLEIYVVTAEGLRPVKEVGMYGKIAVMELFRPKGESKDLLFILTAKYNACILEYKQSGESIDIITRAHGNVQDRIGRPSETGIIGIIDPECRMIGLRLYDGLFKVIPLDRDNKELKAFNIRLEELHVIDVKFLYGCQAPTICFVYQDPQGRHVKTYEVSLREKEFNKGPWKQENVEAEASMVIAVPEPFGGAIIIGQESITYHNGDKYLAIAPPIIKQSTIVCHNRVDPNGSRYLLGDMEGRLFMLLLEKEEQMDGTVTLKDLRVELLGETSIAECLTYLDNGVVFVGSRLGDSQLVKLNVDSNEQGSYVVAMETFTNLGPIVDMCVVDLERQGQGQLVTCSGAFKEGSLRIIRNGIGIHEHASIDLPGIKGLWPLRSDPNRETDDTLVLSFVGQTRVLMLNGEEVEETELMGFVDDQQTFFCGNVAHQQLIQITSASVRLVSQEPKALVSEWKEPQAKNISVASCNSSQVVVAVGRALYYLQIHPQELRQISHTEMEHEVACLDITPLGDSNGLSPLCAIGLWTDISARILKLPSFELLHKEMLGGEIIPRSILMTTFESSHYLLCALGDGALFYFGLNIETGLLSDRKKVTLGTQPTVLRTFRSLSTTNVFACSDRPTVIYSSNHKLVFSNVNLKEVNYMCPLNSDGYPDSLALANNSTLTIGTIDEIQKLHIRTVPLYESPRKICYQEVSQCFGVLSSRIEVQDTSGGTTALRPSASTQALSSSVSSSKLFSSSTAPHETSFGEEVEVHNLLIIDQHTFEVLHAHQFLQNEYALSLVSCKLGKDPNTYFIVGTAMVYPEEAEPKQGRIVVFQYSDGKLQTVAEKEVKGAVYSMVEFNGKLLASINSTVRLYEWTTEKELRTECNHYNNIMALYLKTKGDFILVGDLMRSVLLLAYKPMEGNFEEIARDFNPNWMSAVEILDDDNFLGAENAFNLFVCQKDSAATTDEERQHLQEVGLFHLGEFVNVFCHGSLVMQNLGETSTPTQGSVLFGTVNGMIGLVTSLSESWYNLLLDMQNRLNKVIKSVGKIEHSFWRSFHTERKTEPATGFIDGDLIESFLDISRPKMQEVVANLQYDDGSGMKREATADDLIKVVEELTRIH

`COc1ccc(C(=O)N2CCC(CCN3CCN(Cc4ccc(-c5cc6c(-c7cc(F)cc(NC(=O)c8ccc(C(C)(C)O)cc8F)c7C)ncnc6[nH]5)cc4)CC3)CC2)cc1N1CCC(=O)NC1=O` [Compound 17, N-(3-(6-(4-((4-(2-(1-(3-(2,4-Dioxotetrahydropyrimidin-1(2H)-yl)-4-methoxybenzoyl)piperidin-4-yl)ethyl)piperazin-1-yl)methyl)phenyl)-7H-pyrrolo[2,3-d]pyrimidin-4-yl)-5-fluoro-2-methylphenyl)-2-fluoro-4-(2-hydroxypropan-2-yl)benzamide] displayed a DC50 in experiment [1] of 2.3 nM. The “BTK deg Amax” value in experiment [1] is on record as 11.0%. Further, the 50% growth inhibitory concentration (GI50) in experiment [2] came to 0.5 nM; in experiment [3] it was 4140 nM.

Consider `COc1ccc(C(=O)N2CCN(CCN3CCC(OCc4ccc(-c5cc6c(-c7cc(F)cc(NC(=O)c8ccc(C(C)(C)O)cc8F)c7C)ncnc6[nH]5)cc4)CC3)CC2)cc1N1CCC(=O)NC1=O` [Compound 21, N-(3-(6-(4-(((1-(2-(4-(3-(2,4-dioxotetrahydropyrimidin-1(2H)-yl)-4-methoxybenzoyl)piperazin-1-yl)ethyl)piperidin-4-yl)oxyl)methyl)phenyl)-7H-pyrrolo[2,3-d]pyrimidin-4-yl)-5-fluoro-2-methylphenyl)-2-fluoro-4-(2-hydroxypropan-2-yl)benzamide], for which, in experiment [1], the 50% degradation concentration (DC50) stood at 1.8 nM and the “BTK deg Amax” value was determined as 3.7%. Besides, the GI50 in experiment [2] amounted to 0.6 nM. The concentration for 50% growth inhibition (GI50) in experiment [3] stood at 6830 nM.

For `COc1ccc(C(=O)NCCCCN2CCN(Cc3ccc(-c4cc5c(-c6cc(F)cc(NC(=O)c7ccc(C(C)(C)O)cc7F)c6C)ncnc5[nH]4)cc3)CC2)cc1N1CCC(=O)NC1=O` [Compound 26, N-(3-(6-(4-((4-(4-(3-(2,4-Dioxotetrahydropyrimidin-1(2H)-yl)-4-methoxybenzamido)butyl)piperazin-1-yl)methyl)phenyl)-7H-pyrrolo[2,3-d]pyrimidin-4-yl)-5-fluoro-2-methylphenyl)-2-fluoro-4-(2-hydroxypropan-2-yl)benzamide], in experiment [1], the DC50 was found to be 25 nM and the “BTK deg Amax” value amounted to 4.3%. The 50% growth inhibitory concentration (GI50) in experiment [2] stood at 1.92 nM. In experiment [3], the 50% growth inhibitory concentration (GI50) is 4760 nM.

Consider `Cc1cc(F)c(C(=O)N(C)CCCCCNCc2ccc(-c3cc4c(-c5cc(F)cc(NC(=O)c6ccc(C(C)(C)O)cc6F)c5C)ncnc4[nH]3)cc2)cc1N1CCC(=O)NC1=O` [Compound 28, 5-(2,4-Dioxotetrahydropyrimidin-1(2H)-yl)-2-fluoro-N-(5-((4-(4-(5-fluoro-3-(2-fluoro-4-(2-hydroxypropan-2-yl)benzamido)-2-methylphenyl)-7H-pyrrolo[2,3-d]pyrimidin-6-yl)benzyl)amino)pentyl)-N,4-dimethylbenzamide], for which, in experiment [1], the DC50 was 93.7 nM. The “BTK deg Amax” value in experiment [1] was found to be 12.1%. The results for the GI50 in experiment [2] and in experiment [3] were 7.16 nM and 6120 nM, respectively.

As for `COc1ccc(C(=O)N2CC3(CCN(Cc4ccc(-c5cc6c(-c7cc(F)cc(NC(=O)c8ccc(C(C)(C)O)cc8F)c7C)ncnc6[nH]5)cc4)CC3)C2)cc1N1CCC(=O)NC1=O` [Compound 32], in experiment [1], the DC50 was 34.2 nM and the “BTK deg Amax” value is recorded as 15.4%. The GI50 in experiment [2] was determined as 6.31 nM. For the same molecule, in experiment [3], the concentration for 50% growth inhibition (GI50) worked out at 7440 nM.

As to `COc1ccc(C(=O)N2CCC(C(=O)N3CCN(Cc4ccc(-c5cc6c(-c7cc(F)cc(NC(=O)c8ccc(C(C)(C)O)cc8F)c7C)ncnc6[nH]5)cc4)CC3)CC2)cc1N1CCC(=O)NC1=O` [Compound 33, N-(3-(6-(4-((4-(1-(3-(2,4-dioxotetrahydropyrimidin-1(2H)-yl)-4-methoxybenzoyl)piperidine-4-carbonyl)piperazin-1-yl)methyl)phenyl)-7H-pyrrolo[2,3-d]pyrimidin-4-yl)-5-fluoro-2-methylphenyl)-2-fluoro-4-(2-hydroxypropan-2-yl)benzamide], in experiment [1], it took 22.2 nM to reach half-maximal degradation (DC50). In experiment [1], the “BTK deg Amax” value was 5.9%. The values for the GI50 in experiment [2] and in experiment [3] were 3.97 nM and 4280 nM, respectively.

In general, DC50 refers to the midpoint of the concentration-degradation curve. By GI50 is commonly meant the concentration that inhibits growth by half.
